Test results published in US9920061B2, “Imidazo[1,5-A]pyrimidinyl carboxamide compounds and their use in the treatment of medical disorders” (Lysosomal Therapeutics Inc., priority 2016, dated 2018).
In brackets after ≈: the same amount, converted by molar mass. Read-outs that look alike come from different tables or passages of the source.

Columns and labels:
[1] = molecular target: T1, glucocerebrosidase (Gcase) (Homo sapiens, UniProt P04062); test: Glucocerebrosidase (Gcase) activation assay, 4-methylumbelliferyl-beta-D-glucopyranoside substrate, with saposin C; assay type: biochemical
T1 sequence (P04062 40-536): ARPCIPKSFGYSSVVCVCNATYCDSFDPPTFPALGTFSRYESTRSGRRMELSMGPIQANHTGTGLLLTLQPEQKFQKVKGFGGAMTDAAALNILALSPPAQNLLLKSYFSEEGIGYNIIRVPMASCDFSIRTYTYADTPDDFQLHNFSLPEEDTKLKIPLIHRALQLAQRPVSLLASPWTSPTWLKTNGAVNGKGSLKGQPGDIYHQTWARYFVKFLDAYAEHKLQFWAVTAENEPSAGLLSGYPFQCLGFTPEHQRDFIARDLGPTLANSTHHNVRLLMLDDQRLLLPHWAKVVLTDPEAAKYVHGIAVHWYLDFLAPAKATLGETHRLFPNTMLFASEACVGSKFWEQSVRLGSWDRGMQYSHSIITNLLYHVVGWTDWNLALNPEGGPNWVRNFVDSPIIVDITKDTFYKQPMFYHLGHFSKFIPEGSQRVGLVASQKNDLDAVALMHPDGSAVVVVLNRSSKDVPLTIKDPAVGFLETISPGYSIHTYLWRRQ
How it was run: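 Micellar buffer (176 mM K2HPO4/50 mM citric acid, pH 4.7; 0.32 mM triton, 0.37 mol % PS) holding 10 nM GCase and 100 nM saposin C, pre-incubated with compound 30 min at room temperature. Substrate final 2 mM before mixing; 15 min reaction, glycine pH 12.5 stop, fluorescence 365/440 nm. Screened at 1.0 and 0.1 μM; 8-point, 3-fold dose response.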

[2] = Compound solubility in water; assay type: physicochemical
[3] = 0.1 μM test compound, read-out: Percent Gcase Activation 0.1 μM Test Compound
[4] = 1 μM test compound, read-out: Percent Gcase Activation 1 μM Test Compound
[5] = test compound at 0.1 μM, read-out: Percent Gcase Activation, 0.1 μM Test Compound
[6] = test compound at 1.0 μM, read-out: Percent Gcase Activation, 1 μM Test Compound

Row | SMILES | activation at 0.1 µM [1, 3] [%] | activation at 1 µM [1, 4] [%] | solubility [2] [µg/mL] | activation at 0.1 µM [1, 5] [%] | activation at 1 µM [1, 6] [%] | solubility ([2]; in water) [µg/mL]
1 | Cc1cc(-n2ccc(Cl)n2)nc2c(C(=O)NC(C3CC3)C(F)(F)F)ncn12 (stereo not drawn) [III-143] | 10 to 20 | > 60 | 4.2 (≈ 10.5 µM) |  |  | 
2 | Cc1cc(-c2cccc(OC3CC3)n2)nc2c(C(=O)NC(C3CC3)C(F)(F)F)ncn12 (stereo not drawn) [IV-15] |  |  |  | 10 to 20 | > 60 | 2.1 (≈ 4.87 µM)
3 | Cc1cc(-c2ccns2)nc2c(C(=O)NC(C)(C)C3CC3)ncn12 [III-60] | 10 to 20 | > 60 | 4 (≈ 11.7 µM) |  |  | 
4 | Cc1cc(-c2cccc(C#N)c2)nc2c(C(=O)NC(C3CC3)C(F)(F)F)ncn12 (stereo not drawn) [III-152] | > 20 | > 60 | 3.8 (≈ 9.51 µM) |  |  | 
5 | Cc1cc(N2CCCN(C(C)C)C2=O)nc2c(C(=O)NC(C3CC3)C(F)(F)F)ncn12 (stereo not drawn) [IV-89] |  |  |  | < 10 | < 30 | 25.6 (≈ 58.4 µM)
6 | Cc1cc(-c2ccc(Cl)nc2)nc2c(C(=O)NC(C)(C)C3CC3)ncn12 [III-76] | 10 to 20 | > 60 | 1.1 (≈ 2.97 µM) |  |  | 
7 | COCc1cc(-c2ccc(F)cc2)nc2c(C(=O)N[C@@H](C)C3CC3)ncn12 [III-36] | 10 to 20 | > 60 | 22 (≈ 59.7 µM) |  |  | 
8 | CCNc1cc(C)n2cnc(C(=O)NC(c3ccc(F)cc3)C(F)(F)F)c2n1 (stereo not drawn) [III-90] | > 20 | > 60 | 2.2 (≈ 5.56 µM) |  |  | 
9 | COc1cc(-c2cc(C)n3cnc(C(=O)N[C@@H](C)C4CC4)c3n2)ccn1 [III-99] | < 10 | < 30 | 25.6 (≈ 72.8 µM) |  |  | 
10 | Cc1cc(-c2cnsc2)nc2c(C(=O)NC(C)(C)C)ncn12 [IV-55] |  |  |  | < 10 | > 60 | 8.2 (≈ 26 µM)
11 | CCc1cc(-c2ccsn2)nc2c(C(=O)NC(C3CC3)C(F)(F)F)ncn12 (stereo not drawn) [IV-106] |  |  |  | > 20 | > 60 | 0.6 (≈ 1.52 µM)
12 | Cc1cc(-c2cccnc2)nc2c(C(=O)N[C@H]3CC[C@H](OC(C)(C)C)CC3)ncn12 [III-64] | < 10 | < 30 | 32.2 (≈ 79 µM) |  |  | 
13 | COc1cc(-c2cc(C)n3cnc(C(=O)NC(C4CC4)C4CC4)c3n2)ccc1Cl [III-175] | 10 to 20 | > 60 | 0.2 (≈ 0.487 µM) |  |  | 
14 | Cc1cc(C)n2cnc(C(=O)NC(c3ccc(F)cc3)C(F)(F)F)c2n1 (stereo not drawn) [III-16] | 10 to 20 | > 60 | 24.3 (≈ 66.3 µM) |  |  | 
15 | Cc1cc(-c2cc(F)cc(C#N)c2)nc2c(C(=O)NC(C3CC3)C(F)(F)F)ncn12 (stereo not drawn) [IV-110] |  |  |  | > 20 | > 60 | 1.2 (≈ 2.88 µM)
16 | Cc1cc(-c2ccc(F)cc2C#N)nc2c(C(=O)NC(C3CC3)C(F)(F)F)ncn12 (stereo not drawn) [IV-80] |  |  |  | > 20 | > 60 | 3.7 (≈ 8.87 µM)
17 | Cc1cc(-c2cc(F)ccc2F)nc2c(C(=O)N[C@@H](C)C3CC3)ncn12 [III-112] | > 20 | > 60 | 5.5 (≈ 15.4 µM) |  |  | 
18 | C#CC(C)(C)NC(=O)c1ncn2c(C)cc(-c3cccc(Cl)c3)nc12 [III-135] | > 20 | > 60 | 0.3 (≈ 0.85 µM) |  |  | 
19 | COc1cccc(-c2cc(C)n3cnc(C(=O)NC(C4CC4)C(F)(F)F)c3n2)n1 (stereo not drawn) [III-147] | > 20 | > 60 | 0.5 (≈ 1.23 µM) |  |  | 
20 | Cc1cc(-c2cscn2)nc2c(C(=O)NC(C)(C)C3CC3)ncn12 [III-62] | < 10 | > 60 | 6.3 (≈ 18.5 µM) |  |  | 
21 | Cc1cc(N2CCC(F)(F)C2)nc2c(C(=O)NC(C3CC3)C(F)(F)F)ncn12 (stereo not drawn) [III-139] | > 20 | > 60 | 1.8 (≈ 4.46 µM) |  |  | 
22 | Cc1cc(Oc2ccncc2)nc2c(C(=O)N[C@@H](C)C3CC3)ncn12 [III-123] | < 10 | < 30 | 29.6 (≈ 87.7 µM) |  |  | 
23 | COc1ccccc1-c1cc(C)n2cnc(C(=O)NC(C)C3CC3)c2n1 (stereo not drawn) [III-52] | > 20 | > 60 | 11.6 (≈ 33.1 µM) |  |  | 
24 | Cc1cc(-c2cccnc2)nc2c(C(=O)NC(C3CC3)C(F)(F)F)ncn12 (stereo not drawn) [III-71] | < 10 | > 60 | 22.5 (≈ 59.9 µM) |  |  | 
25 | Cc1cc(-c2cccnc2)nc2c(C(=O)NC(C)(C)C)ncn12 [III-89] | < 10 | < 30 | 24.5 (≈ 79.2 µM) |  |  | 
